Test results as given in patent US20070259894A1, “Use of Atazanavir for Improving the Pharmacokinetics of Drugs Metabolized by Ugt1a1” (priority 2004, published 2007).
Where two headings read alike, the source gives them in different places.

How the values were obtained:
[1] = Hygroscopicity by vapor sorption analysis; type: physicochemical; details: equilibrated at 95% RH at 25° C.
Protocol: Hygroscopicity data was obtained on a VTI Symmetrical Vapor Sorption Analyzer Model SGA-1. Data was collected at room temperature from 5-95% relative humidity and back, 5% relative humidity change per step. Equilibrium conditions were 0.01 weight percent change in 5 minutes with a maximum equilibration time of 180 minutes. […] When equilibrated back down to 5% RH, the material returned back to approximately its dry weight.

[2] = system: glucuronidation of Compound A by rat liver microsomes; assay: Inhibition by atazanavir of glucuronidation of Compound A by rat liver microsomes; type: biochemical; details: atazanavir at a concentration of 50 μM
Protocol: The IC50 value of atazanavir for inhibition of glucuronidation of Compound A by human liver microsomes was determined using a pool of human liver microsomes (obtained from Xenotech LLC, Lenexa, Kans.). Compound A (as the potassium salt) was added to human liver microsomes (1.0 mg/mL) in a buffer consisting of 0.1 M potassium phosphate buffer (pH=7.4), 5 mM magnesium chloride, 10 μg/mL alamethicin, and 10 mM D-saccharic acid 1,4-lactone. The mixture of Compound A and the buffered microsomes (0.5 mL) was incubated at Compound A's Km (200 μM). UDPGA was added to the incubated sample to a concentration of 4 mM to initiate the glucuronidation reaction, which was stopped after 25 minutes (37° C.) with 2 volumes (i.e., 1 mL) of acetonitrile containing 1.5 μM of Compound B as an internal standard for the subsequent LC/MS analysis. Each of the samples was then centrifuged and the resulting supernatant was diluted 1:1 with 0.1% formic acid in water and a 10 μL aliquot was injected onto the LC/MS to determine the amount of glucuronide formation. […]
The IC50 value of atazanavir for inhibition of glucuronidation of Compound A in the presence of rat liver microsomes was determined using a procedure similar to that just described above for human liver microsomes.

[3] = In vivo human studies: plasma PK of Compound A with and without atazanavir; set-up: species or system healthy human male volunteers; details: for half-life: male, plasma, oral, read-out: alpha phase half-life (converted)
Protocol: The protocol was a 2-period, fixed sequence study in healthy human male volunteers to examine the influence of multiple doses of atazanavir on a single dose of Compound A. In Period 1, 12 subjects received a single oral dose of 100 mg of Compound A (i.e., a tablet as described in Part B of Example 3) (N=10) or placebo (N=2). In Period 2, the same 12 subjects were administered 400 mg atazanavir once daily in an open-label fashion (capsules) for 9 days. On Day 7, the subjects were administered atazanavir in combination with a single oral dose of 100 mg of Compound A (tablet) or placebo (the same subjects received placebo in both study periods). All doses were administered following a moderate-fat meal. Plasma PK samples were collected for 72 hours following the dose of Compound A in both periods.
Sample preparation and analysis: The plasma samples were extracted using 96-well liquid-liquid extraction. Plasma extracts were injected onto an Ace C18 (50×3.0 mm, 3 μm, titanium rits) HPLC column and analyzed under isocratic conditions with a mobile phase consisting of 42.5/57.5 (v/v %) 0.1 mM EDTA in 0.1% formic acid/methanol, at a flow rate of 0.5 mL/minute. The sample extracts were ionized using an APCI interface and were monitored by MRM in the positive ionization mode. The dynamic range of the LC/MS/MS assay was 2-1000 ng/mL based on a 200 μL aliquot of human plasma.
PK Calculations: Area under the curve for a plot of plasma concentration v. time to last detectable concentration (AUC0-last), was calculated using a non-compartmental model and the Linear Up/Log Down calculation method in WinNonlin Version 4.1. Data points after Cmax were fitted to a biexponential equation (A*exp(−αt)+B*exp(−βt)) using WinNonlin v4.1, and AUC values were extrapolated to infinity according to the following equation: […]=AUC0-last+Clast/β, where Clast is the last detectable concentration and β comes from the above-noted biexponential equation. Observed maximum plasma concentration (Cmax), time of Cmax (Tmax), and plasma concentration at 12 hr post dosing (C12hr) were determined by inspection.

[4] = In vivo rat studies: plasma levels of Compound A with and without atazanavir; set-up: species or system Male Sprague-Dawley rats; details: for AUC / Cmax: male, Sprague-Dawley, plasma
Protocol: Male Sprague-Dawley rats (4 rats/group) weighing approximately 300 grams each were given orally either 0.5% methylcellulose in water (control group) or atazanavir in 0.5% methylcellulose once a day for three days. The atazanavir daily doses were 50 mg/kg and were administered in 0.5% methylcellulose at 5 mL/kg. On day four the control rats were dosed with 10 mg/kg of Compound A in the form of a potassium salt in 0.5% methylcellulose while the treatment group received atazanavir followed by an oral dose of 10 mg/kg of Compound A (as potassium salt) in 0.5% methylcellulose. Blood samples were taken from all rats in treatment and control groups at 0, 0.25, 0.5, 1, 2, 4, 6, 8, and 24 hours post dose on day 4. Plasma levels of Compound A were determined by LC-MS/MS as follows:
UDP-glucuronosyltransferase activity was determined by measuring the formation of the glucuronide of Compound A. HPLC analysis was carried out on an Agilent HP 1100 gradient system using the following parameters: column=Phenomenex Luna C18-2 (2 mm×150 mm, 5 μm); mobile phase=0.1% formic acid in water (solvent A) and 0.1% formic acid in acetonitrile (solvent B); flow rate=0.2 mL/min; procedure=the initial solvent composition of 10% B was increased to 80% B over 10 minutes, followed by holding solvent B constant at 80% for 3 minutes, and then returning to initial conditions for 6 minutes. The HPLC system was interfaced with a Finnigan TSQ Quantum tandem mass spectrometer. Mass spectral analyses were carried out using electrospray ionization (ESI) in the positive ion mode. The temperature for the ion transfer tube was 320° C. and the ESI ionizing voltage was maintained at 4.4 kV for all analyses. Tandem mass spectrometry (MS/MS) was based on collision-induced dissociation (CID) of ions entering the rf-only octapole region where argon was used as the collision gas at a pressure of 0.8 mtorr. A collision offset at −22 eV was used for MS/MS analyses. The CID transitions used were m/z=621.1→445.1 (Compound A glucuronide) and 431.2→306.1 (Compound B).

[5] = single oral 100 mg Compound A tablet, atazanavir 400 mg once daily, moderate-fat meal
[6] = Compound A control group, oral 10 mg/kg (K salt), no atazanavir
[7] = oral Compound A 10 mg/kg (K salt) on day 4 with oral atazanavir 50 mg/kg once a day

## Cc1nnc(C(=O)NC(C)(C)c2nc(C(=O)NCc3ccc(F)cc3)c([O-])c(=O)n2C)o1.[K+]
[1]
  weight increase (hygroscopicity): 1.8%

## COC(=O)N[C@H](C(=O)N[C@@H](Cc1ccccc1)[C@@H](O)CN(Cc1ccc(-c2ccccn2)cc1)NC(=O)[C@@H](NC(=O)OC)C(C)(C)C)C(C)(C)C (relative stereo) [atazanavir, [3S-(3R*, 8′R*, 9′R*, 12R*)]-3,12-bis(1,1-dimethylethyl)-8-hydroxy-4,11-dioxo-9-(phenylmethyl)-6-[[4-(2-pyridinyl)phenylmethyl]2,5,6,10,13-pentaazatetradecanedioic] acid, dimethyl ester]
[2]
  inhibition of the glucuronidation of Compound A: 41%

## Cc1nnc(C(=O)NC(C)(C)c2nc(C(=O)NCc3ccc(F)cc3)c(O)c(=O)n2C)o1 [Compound A, N-(4-fluorobenzyl)-5-hydroxy-1-methyl-2-(1-methyl-1-{[(5-methyl-1,3,4-oxadiazol-2-yl)carbonyl]amino}ethyl)-6-oxo-1,6-dihydroxypyrimidine-4-carboxamide]
[3]; 100 mg Compound A alone
  half-life: 1.1 h
[3]; 100 mg Compound A in the presence of atazanavir 400 mg once daily
  half-life: 1.4 h
[3]; [5]
  AUC0-last GMR in the presence versus absence of atazanavir: 1.73
  Cmax GMR in the presence versus absence of atazanavir: 1.53
  geometric mean ratio (GMR) 12 hr concentration in the presence versus absence of atazanavir: 1.96
[4]; atazanavir 50 mg/kg plus Compound A 10 mg/kg versus Compound A alone
  increase of plasma levels of Compound A by atazanavir: about 3 fold
[4]; [6]
  AUC: 2.9 ± 0.6 µM·h
  Cmax: 2.3 ± 0.9 µM
[4]; [7]
  AUC: 9.9 ± 3.7 µM·h
  Cmax: 7.2 ± 6.1 µM
